Where a name gives a salt, the structure may show the parent alone.
biological target: T1, recombinant human GPR52 (Homo sapiens, UniProt Q9Y2T5); experiment: TR-FRET cAMP assay (LANCE Ultra cAMP Kit), GPR52 activity; type: cell-based; conditions: Flp-In-CHO cells stably expressing recombinant human GPR52; cAMP production, normalized to the positive control
T1 construct: expressed in transfected cells
Summary of the method: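 Flp-In CHO cells stably expressing human GPR52 (2000/well) in stimulation buffer with 0.5 mM IBMX, pH 7.4, were exposed to compound in 10-point duplicate curves for 30 min at room temperature. cAMP was detected by LANCE Ultra TR-FRET, and EC50 was taken from nonlinear fits normalized to the positive control.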

T1 sequence (Q9Y2T5 whole entry): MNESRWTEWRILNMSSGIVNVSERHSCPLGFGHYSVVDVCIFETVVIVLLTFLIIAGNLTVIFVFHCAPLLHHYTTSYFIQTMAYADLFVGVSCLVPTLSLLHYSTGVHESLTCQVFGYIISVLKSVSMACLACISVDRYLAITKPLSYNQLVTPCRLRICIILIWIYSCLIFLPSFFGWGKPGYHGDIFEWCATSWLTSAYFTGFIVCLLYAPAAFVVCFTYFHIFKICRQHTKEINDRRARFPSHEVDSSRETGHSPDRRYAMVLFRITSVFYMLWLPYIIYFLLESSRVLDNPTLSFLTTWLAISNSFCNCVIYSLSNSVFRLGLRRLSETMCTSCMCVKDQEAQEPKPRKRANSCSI

EC50 [nM] | Structure (SMILES)
< 25 | Cc1cc(-c2ccnc(COc3ccc(C(F)(F)F)cc3)c2)ccc1C(N)=O [Example 81, 4-{2-[4-(trifluoromethyl)phenoxymethyl]pyridin-4-yl}-2-methylbenzamide hydrochloride]
25 to 100 | Cc1cc(-c2ccnc(COc3ccc(C#N)c(F)c3)c2)ccc1C(N)=O [Example 82, 4-[2-(4-cyano-3-fluorophenoxymethyl)pyridin-4-yl]-2-methylbenzamide]
101 to 1000 | Cc1cc(-c2ccnc(COc3cc(F)c(F)c(F)c3)c2)ccc1C(N)=O [Example 83, 4-[2-(3,4,5-trifluorophenoxymethyl)pyridin-4-yl]-2-methylbenzamide]
101 to 1000 | Cc1cc(-c2ccnc(COc3ccc(C#N)c(F)c3F)c2)ccc1C(N)=O [Example 84, 4-[2-(4-cyano-2,3-difluorophenoxymethyl)pyridin-4-yl]-2-methylbenzamide]
101 to 1000 | Cc1cc(-c2ccnc(COc3cc(F)cc(F)c3)c2)ccc1C(N)=O [Example 85, 4-[2-(3,5-difluorophenoxymethyl)pyridin-4-yl]-2-methylbenzamide]
< 25 | CC(=O)c1ccc(OCc2cc(-c3ccc(C(N)=O)c(C)c3)ccn2)cc1 [Example 86, 4-[2-(4-acetylphenoxymethyl)pyridin-4-yl]-2-methylbenzamide hydrochloride]
101 to 1000 | Cc1cc(-c2ccnc(COc3ccc4c(cnn4C)c3)c2)ccc1C(N)=O [Example 87, 4-(2-{[(1-methyl-1H-indazol-5-yl)oxy]methyl}pyridin-4-yl)-2-methyl-benzamide]
< 25 | Cc1cc(-c2ccnc(COc3ccc4c(c3)OCC4)c2)ccc1C(N)=O [Example 88, 4-{2-[(2,3-dihydro-1-benzofuran-6-yloxy)methyl]pyridin-4-yl}-2-methylbenzamide]
25 to 100 | Cc1ccc(OCc2cncc(-c3ccc(C(N)=O)c(C)c3)c2)cc1F [Example 89, 4-[5-(3-fluoro-4-methylphenoxymethyl)pyridin-3-yl]-2-methylbenzamide]
101 to 1000 | Cc1cc(-c2cncc(COc3cc(F)cc(F)c3)c2)ccc1C(N)=O [Example 93, 4-[5-(3,5-difluorophenoxymethyl)pyridin-3-yl]-2-methylbenzamide]
101 to 1000 | Cc1cc(-c2cncc(COc3cc(F)c(F)c(F)c3)c2)ccc1C(N)=O [Example 100, 4-[5-(3,4,5-trifluorophenoxymethyl)pyridin-3-yl]2-methylbenzamide]

Second part, the compound before the results:

Structure (SMILES) | EC50 [nM]
Cc1cc(-c2cncc(COc3ccc(C(F)(F)F)cc3)c2)ccc1C(N)=O [Example 90, 4-{5-[4-(trifluoromethyl)phenoxymethyl]pyridin-3-yl}-2-methylbenzamide] | 25 to 100
Cc1cc(-c2cncc(COc3ccc(C#N)c(F)c3)c2)ccc1C(N)=O [Example 91, 4-[5-(4-cyano-3-fluorophenoxymethyl)pyridin-3-yl]-2-methylbenzamide] | > 1000
Cc1cc(-c2cncc(COc3cc(F)cc(C#N)c3)c2)ccc1C(N)=O [Example 92, 4-[5-(3-cyano-5-fluorophenoxymethyl)pyridin-3-yl]-2-methylbenzamide] | > 1000
COc1cc(OCc2cncc(-c3ccc(C(N)=O)c(C)c3)c2)ccc1C#N [Example 94, 4-[5-(4-cyano-3-methoxyphenoxymethyl)pyridin-3-yl]-2-methylbenzamide] | 101 to 1000
Cc1cc(-c2cncc(COc3ccc4cnn(C)c4c3)c2)ccc1C(N)=O [Example 95, 4-(5-{[(1-methyl-1H-indazol-6-yl)oxy]methyl}pyridin-3-yl)-2-methylbenzamide] | > 1000
COc1ccc(OCc2cncc(-c3ccc(C(N)=O)c(C)c3)c2)cc1OC [Example 96, 4-[5-(3,4-dimethoxyphenoxymethyl)pyridin-3-yl]-2-methylbenzamide] | > 1000
Cc1cc(-c2cncc(COc3ccc(F)cc3)c2)ccc1C(N)=O [Example 97, 4-[5-(4-fluorophenoxymethyl)pyridin-3-yl]-2-methylbenzamide] | > 1000
COc1ccc(OCc2cncc(-c3ccc(C(N)=O)c(C)c3)c2)cc1 [Example 98, 4-[5-(4-methoxyphenoxymethyl)pyridin-3-yl]-2-methylbenzamide] | 25 to 100
COc1ccc(OCc2cncc(-c3ccc(C(N)=O)c(C)c3)c2)c(Cl)c1 [Example 99, 4-[5-(2-chloro-4-methoxyphenoxymethyl)pyridin-3-yl]-2-methylbenzamide] | > 1000
COc1cc(OCc2cncc(-c3ccc(C(N)=O)c(C)c3)c2)ccc1C(F)(F)F [Example 101, 4-{5-[3-methoxy-4-(trifluoromethyl)phenoxymethyl]pyridin-3-yl}-2-methylbenzamide] | 101 to 1000
Cc1cc(-c2cccc(COc3cccc(C(F)(F)F)c3)n2)ccc1C(N)=O [Example 102, 4-{6-[3-(trifluoromethyl)phenoxymethyl]pyridin-2-yl}-2-methylbenzamide] | > 1000
Cc1cc(-c2ccnc(COc3ccc(C#N)c(F)c3)n2)ccc1C(N)=O [Example 103, 4-[2-(4-cyano-3-fluorophenoxymethyl)pyrimidin-4-yl]-2-methylbenzamide] | 101 to 1000
Cc1cc(-c2cc(COC3CCCCC3)ccn2)ccc1C(N)=O [Example 104, 4-{4-[(cyclohexyloxy)methyl]pyridin-2-yl}-2-methylbenzamide] | 101 to 1000

— patent US12421193B2, “GPR52 modulators and methods of use” (Neurocrine Biosciences, Inc., priority 2020, dated 2025)
